Assay results: ChEMBL document CHEMBL3991601, “The target landscape of clinical kinase drugs” (Science, 2017)
Each block holds one molecule with its values, some of them ahead of it. Activity calls are given as the source filed them. Unless noted, no cut-off for these calls is given here.

Experiments:
[1] = molecular target: Activin receptor type-1-like (Homo sapiens, UniProt P37023)
[2] = molecular target: 5'-AMP-activated protein kinase subunit gamma-1 (Homo sapiens, UniProt P54619)
[3] = molecular target: T1, Uncharacterized protein FLJ45252 (Homo sapiens, UniProt Q6ZSR9)
T1 sequence (Q6ZSR9 whole entry): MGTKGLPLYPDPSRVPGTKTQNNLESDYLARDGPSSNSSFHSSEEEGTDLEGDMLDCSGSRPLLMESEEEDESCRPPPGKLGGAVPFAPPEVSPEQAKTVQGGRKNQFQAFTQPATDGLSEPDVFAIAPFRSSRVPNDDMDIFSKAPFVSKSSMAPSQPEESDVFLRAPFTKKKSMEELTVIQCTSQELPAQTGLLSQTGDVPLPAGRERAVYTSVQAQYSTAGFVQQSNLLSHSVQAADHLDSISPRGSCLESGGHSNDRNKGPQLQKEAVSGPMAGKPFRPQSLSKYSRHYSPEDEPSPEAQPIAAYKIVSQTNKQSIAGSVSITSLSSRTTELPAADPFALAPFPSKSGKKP

[4] = molecular target: Cyclin-dependent kinase 18 (Homo sapiens, UniProt Q07002)
Sequence of Cyclin-dependent kinase 18 (Q07002 whole entry): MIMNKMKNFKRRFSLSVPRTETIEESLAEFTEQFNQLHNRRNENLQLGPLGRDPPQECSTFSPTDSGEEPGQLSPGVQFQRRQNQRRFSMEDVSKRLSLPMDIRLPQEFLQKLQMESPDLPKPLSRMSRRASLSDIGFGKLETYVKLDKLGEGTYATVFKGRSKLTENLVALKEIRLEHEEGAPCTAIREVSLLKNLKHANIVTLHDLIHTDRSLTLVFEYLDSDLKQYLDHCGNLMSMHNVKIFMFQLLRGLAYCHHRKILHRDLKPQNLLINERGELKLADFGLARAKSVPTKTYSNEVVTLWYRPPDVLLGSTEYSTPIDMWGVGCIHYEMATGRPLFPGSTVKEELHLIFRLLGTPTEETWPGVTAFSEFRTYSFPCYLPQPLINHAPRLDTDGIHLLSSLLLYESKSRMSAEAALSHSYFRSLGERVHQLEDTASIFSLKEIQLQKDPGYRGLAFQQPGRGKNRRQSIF

[5] = molecular target: Mast/stem cell growth factor receptor Kit (Homo sapiens, UniProt P10721)
Sequence of Mast/stem cell growth factor receptor Kit (P10721 whole entry): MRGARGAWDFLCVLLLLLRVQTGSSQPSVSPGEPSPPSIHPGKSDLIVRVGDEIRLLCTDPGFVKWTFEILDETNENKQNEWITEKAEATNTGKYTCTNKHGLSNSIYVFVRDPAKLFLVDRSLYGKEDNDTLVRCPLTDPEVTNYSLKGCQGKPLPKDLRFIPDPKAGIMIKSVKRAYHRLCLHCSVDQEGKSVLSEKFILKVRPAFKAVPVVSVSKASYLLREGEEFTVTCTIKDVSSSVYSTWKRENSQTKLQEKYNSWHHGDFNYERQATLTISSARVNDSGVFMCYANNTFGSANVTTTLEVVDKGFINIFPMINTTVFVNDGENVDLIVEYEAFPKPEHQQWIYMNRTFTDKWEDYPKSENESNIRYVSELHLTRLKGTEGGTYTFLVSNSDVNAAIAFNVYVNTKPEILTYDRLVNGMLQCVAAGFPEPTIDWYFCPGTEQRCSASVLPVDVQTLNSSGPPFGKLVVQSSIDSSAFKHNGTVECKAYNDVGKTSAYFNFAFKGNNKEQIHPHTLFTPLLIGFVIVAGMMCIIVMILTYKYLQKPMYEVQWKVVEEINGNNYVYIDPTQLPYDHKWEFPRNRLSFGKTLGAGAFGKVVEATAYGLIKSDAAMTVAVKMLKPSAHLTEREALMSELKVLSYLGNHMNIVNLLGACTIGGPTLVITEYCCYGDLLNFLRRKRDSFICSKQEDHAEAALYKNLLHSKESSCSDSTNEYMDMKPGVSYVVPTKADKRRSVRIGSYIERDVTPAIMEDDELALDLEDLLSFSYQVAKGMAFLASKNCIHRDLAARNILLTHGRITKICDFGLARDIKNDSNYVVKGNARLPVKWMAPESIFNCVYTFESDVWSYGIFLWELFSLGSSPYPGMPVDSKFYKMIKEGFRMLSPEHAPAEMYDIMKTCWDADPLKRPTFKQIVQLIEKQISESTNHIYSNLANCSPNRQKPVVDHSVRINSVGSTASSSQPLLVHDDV

[6] = molecular target: Actin-related protein 3 (Homo sapiens, UniProt P61158)
[7] = molecular target: Cyclin-dependent kinase 9 (Homo sapiens, UniProt P50750)
Sequence of Cyclin-dependent kinase 9 (P50750 whole entry): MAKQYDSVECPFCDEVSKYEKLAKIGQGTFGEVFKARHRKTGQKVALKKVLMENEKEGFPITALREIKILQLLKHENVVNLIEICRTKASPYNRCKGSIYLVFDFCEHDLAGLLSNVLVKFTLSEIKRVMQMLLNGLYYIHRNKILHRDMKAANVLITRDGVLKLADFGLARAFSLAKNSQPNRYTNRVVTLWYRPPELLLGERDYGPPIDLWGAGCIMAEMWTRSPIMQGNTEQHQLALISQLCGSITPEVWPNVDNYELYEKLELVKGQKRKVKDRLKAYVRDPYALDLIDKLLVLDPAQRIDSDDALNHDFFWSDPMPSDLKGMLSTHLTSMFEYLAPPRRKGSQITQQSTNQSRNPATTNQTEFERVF

Sequence of Activin receptor type-1-like (P37023 whole entry): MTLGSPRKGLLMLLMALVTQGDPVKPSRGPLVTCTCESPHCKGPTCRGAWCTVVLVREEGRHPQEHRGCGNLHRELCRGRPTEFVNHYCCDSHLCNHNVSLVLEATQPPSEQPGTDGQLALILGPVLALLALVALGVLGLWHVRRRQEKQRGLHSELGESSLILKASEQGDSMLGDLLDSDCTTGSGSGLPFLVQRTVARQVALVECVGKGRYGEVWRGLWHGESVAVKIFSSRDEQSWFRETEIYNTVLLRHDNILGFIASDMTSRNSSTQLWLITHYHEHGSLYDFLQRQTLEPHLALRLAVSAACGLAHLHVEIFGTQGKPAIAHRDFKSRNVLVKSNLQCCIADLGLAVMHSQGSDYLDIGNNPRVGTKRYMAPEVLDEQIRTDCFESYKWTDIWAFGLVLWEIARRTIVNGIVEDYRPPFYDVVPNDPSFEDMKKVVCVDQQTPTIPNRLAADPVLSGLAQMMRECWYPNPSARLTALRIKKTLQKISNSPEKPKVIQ
Sequence of 5'-AMP-activated protein kinase subunit gamma-1 (P54619 whole entry): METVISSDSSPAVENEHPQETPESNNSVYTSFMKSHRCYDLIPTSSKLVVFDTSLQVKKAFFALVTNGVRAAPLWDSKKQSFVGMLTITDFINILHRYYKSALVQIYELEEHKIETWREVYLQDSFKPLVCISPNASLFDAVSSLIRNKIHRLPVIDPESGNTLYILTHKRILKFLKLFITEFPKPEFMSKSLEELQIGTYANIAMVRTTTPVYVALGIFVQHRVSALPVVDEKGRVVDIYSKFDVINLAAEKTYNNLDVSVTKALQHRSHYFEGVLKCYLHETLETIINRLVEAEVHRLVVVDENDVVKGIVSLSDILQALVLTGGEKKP

SMILES: CCS(=O)(=O)N1CC(CC#N)(n2cc(-c3ncnc4[nH]ccc34)cn2)C1 [BARICITINIB]
Kd [1]: > 30 µM (inactive)

SMILES: CNC(=O)c1cc(Oc2ccc(NC(=O)Nc3ccc(Cl)c(C(F)(F)F)c3)c(F)c2)ccn1 [REGORAFENIB]
Kd [2]: > 30 µM (inactive)
Kd [3]: > 30 µM (inactive)

SMILES: CC(=O)Nc1cccc(-n2c(=O)n(C3CC3)c(=O)c3c(Nc4ccc(I)cc4F)n(C)c(=O)c(C)c32)c1 [TRAMETINIB]
Kd [1]: > 30 µM (inactive)
Kd [4]: > 30 µM (inactive)

SMILES: CC[C@H](Nc1ncnc2[nH]cnc12)c1nc2cccc(F)c2c(=O)n1-c1ccccc1 [IDELALISIB]
Kd [2]: > 30 µM (inactive)
Kd [3]: > 30 µM (inactive)

SMILES: CCc1cnn2c(NCc3ccc[n+]([O-])c3)cc(N3CCCC[C@H]3CCO)nc12 [DINACICLIB]
Kd [2]: > 30 µM (inactive)
Kd [3]: > 30 µM (inactive)

SMILES: CN1CCC(COc2cnc(-c3cccc(Cn4nc(-c5cccc(C#N)c5)ccc4=O)c3)nc2)CC1 [TEPOTINIB]
Kd [6]: > 30 µM (inactive)

SMILES: CC[C@@H]1C(=O)N(C)c2cnc(Nc3ccc(C(=O)N[C@H]4CC[C@H](N5CCN(CC6CC6)CC5)CC4)cc3OC)nc2N1C(C)C [VOLASERTIB]
Kd [2]: > 30 µM (inactive)
Kd [3]: > 30 µM (inactive)

SMILES: CO[C@H]1C[C@@H]2CC[C@@H](C)[C@@](O)(O2)C(=O)C(=O)N2CCCC[C@H]2C(=O)O[C@H]([C@H](C)C[C@@H]2CC[C@@H](OCCO)[C@H](OC)C2)CC(=O)[C@H](C)/C=C(\C)[C@@H](O)[C@@H](OC)C(=O)[C@H](C)C[C@H](C)/C=C/C=C/C=C/1C [EVEROLIMUS]
Kd [7]: > 30 µM (inactive)

SMILES: O=C(O)[C@]1(Cc2cccc(Nc3nccs3)n2)CC[C@@H](Oc2cccc(Cl)c2F)CC1 [MK-5108]
Kd [4]: > 30 µM (inactive)

SMILES: CNC(=O)c1ccc(-c2cnc3ncc(Cc4ccc5ncccc5c4)n3n2)cc1F [CAPMATINIB]
Kd [1]: > 30 µM (inactive)

Further lines, results first:

Kd [1]: > 30 µM (inactive)
SMILES: Cc1cc(Nc2cc(N3CCN(C)CC3)nc(/C=C/c3ccccc3)n2)n[nH]1 [ENMD-2076]

Kd [5]: > 30 µM (inactive)
SMILES: CCN1CCN(Cc2ccc(-c3cc4c(N[C@H](C)c5ccccc5)ncnc4[nH]3)cc2)CC1 [AEE-788]

Kd [5]: > 30 µM (inactive)
SMILES: O=C1NC(=O)/C(=C/c2ccc3nccc(-c4ccncc4)c3c2)S1 [GSK-1059615]

Kd [1]: > 30 µM (inactive)
SMILES: COc1cc(CCc2cc(NC(=O)c3ccc(N4C[C@@H](C)N[C@@H](C)C4)cc3)n[nH]2)cc(OC)c1 [AZD-4547]
